Reference: ChEMBL document CHEMBL1128575, “Nonpeptidic inhibitors of human leukocyte elastase. 5. Design, synthesis, and X-ray crystallography of a series of orally active 5-aminopyrimidin-6-one-containing trifluoromethyl ketones” (J Med Chem, 1995)
pKi: −log10 of the molar value. In brackets after ≈: the same amount, converted by molar mass. Activity calls are given as the source filed them. No cut-off for these calls is given here.

What was measured:
Neutrophil elastase = target: T1, Neutrophil elastase (Homo sapiens, UniProt P08246); assay: In vitro inhibition of human leukocyte elastase mediated hydrolysis of the synthetic substrate MeO-Suc-Ala-Ala-Pro-Val-pNA
T1 sequence (P08246 whole entry): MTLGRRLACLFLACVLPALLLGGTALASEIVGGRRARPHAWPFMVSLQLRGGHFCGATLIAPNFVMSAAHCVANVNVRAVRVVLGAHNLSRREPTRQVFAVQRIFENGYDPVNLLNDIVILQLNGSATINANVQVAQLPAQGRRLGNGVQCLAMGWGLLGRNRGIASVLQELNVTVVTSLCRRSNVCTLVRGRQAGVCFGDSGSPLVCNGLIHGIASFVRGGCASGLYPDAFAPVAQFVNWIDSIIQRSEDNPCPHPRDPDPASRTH

Cricetinae gen. sp. [1] = assay: Oral dose of 20 mg/Kg (30 min prior to instillation of elastase) was tested for the inhibition of elastase-induced lung hemorrhage in hamster; Not active; assay type: functional, organism-based; conditions: Cricetulus griseus
[2] = Selectivity ratio for bovine pancreatic chymotrypsin and HLE
Cricetinae gen. sp. [3] = assay: Oral dose of 2.5 mg/Kg (90 min prior to instillation of elastase) was tested for the inhibition of elastase-induced lung hemorrhage in hamster; assay type: functional, Cricetulus griseus
Cricetinae gen. sp. [4] = assay: Compound at an oral dose of 20 mg/Kg (90 min prior to instillation of elastase) was tested for the inhibition of elastase-induced lung hemorrhage in hamster; assay type: functional, Cricetulus griseus
Cricetinae gen. sp. [5] = assay: Compound at an oral dose of 2.5 mg/Kg (90 min prior to instillation of elastase) was tested for the inhibition of elastase-induced lung hemorrhage in hamster; Not active; assay type: functional, organism-based; conditions: Cricetulus griseus
Cricetinae gen. sp. [6] = assay: Oral dose of 2.5 mg/Kg (30 min prior to instillation of elastase) was tested for the inhibition of elastase-induced lung hemorrhage in hamster; assay type: functional, Cricetulus griseus
Cricetinae gen. sp. [7] = assay: Oral dose of 20 mg/Kg (30 min prior to instillation of elastase) was tested for the inhibition of elastase-induced lung hemorrhage in hamster; assay type: functional, Cricetulus griseus
[8] = Partition coefficient (logP); assay type: physicochemical; conditions: octanol/water
[9] = Solubility of compound in 0.01 M sodium phosphate buffer at pH = […]; assay type: physicochemical; conditions: pH 7.4
Cricetinae gen. sp. [10] = assay: Oral dose of 2.5 mg/Kg (30 min prior to instillation of elastase) was tested for the inhibition of elastase-induced lung hemorrhage in hamster; Not active; assay type: functional, organism-based; conditions: Cricetulus griseus

Row | SMILES | pKi (Neutrophil elastase) | inhibition in vivo at 2.5 mg/kg (Cricetinae gen. sp. [3]) [%] | inhibition in vivo at 20 mg/kg (Cricetinae gen. sp. [7]) [%] | other results
1 | CC(C)C(NC(=O)Cn1c(-c2cccs2)ncc(NC(=O)OCC(F)(F)F)c1=O)C(=O)C(F)(F)F (stereo not drawn) | 7.32 | 41 | – | inhibition in vivo at 20 mg/kg (Cricetinae gen. sp. [4]): 60%
2 | CC(C)C(NC(=O)Cn1c(-c2cc(F)cc(F)c2)ncc(N)c1=O)C(=O)C(F)(F)F (stereo not drawn) | 6.57 | 45 | 72 | –
3 | CC(C)C(NC(=O)Cn1c(-c2cccnc2)ncc(NC(=O)OCc2ccccc2)c1=O)C(=O)C(F)(F)F (stereo not drawn) | 7.48 | – | 59 | logP [8]: 1.3; solubility [9]: 580 µg/mL (≈ 1090 µM); Ratio [2]: 245
4 | COC(=O)Nc1cnc(-c2ccc(F)cc2)n(CC(=O)NC(C(=O)C(F)(F)F)C(C)C)c1=O (stereo not drawn) | – | – | 73 | inhibition in vivo at 2.5 mg/kg (Cricetinae gen. sp. [6]): 39%
5 | CC(C)C(NC(=O)Cn1c(-c2ccc(F)cc2)ncc(NC(=O)OCc2ccccc2)c1=O)C(=O)C(F)(F)F (stereo not drawn) | – | – | 54 | logP [8]: 2.2; solubility [9]: 6.9 µg/mL (≈ 12.6 µM)
6 | CC(C)C(NC(=O)Cn1c(-c2cccs2)ncc(N)c1=O)C(=O)C(F)(F)F (stereo not drawn) | 7.28 | 37 | 75 | inhibition in vivo at 2.5 mg/kg (Cricetinae gen. sp. [6]): 47%
7 | COC(=O)Nc1cnc(-c2cccs2)n(CC(=O)NC(C(=O)C(F)(F)F)C(C)C)c1=O (stereo not drawn) | 7.38 | – | 80 | inhibition (Cricetinae gen. sp. [5]): inactive; inhibition in vivo at 2.5 mg/kg (Cricetinae gen. sp. [6]): 49%
8 | CC(C)C(NC(=O)Cn1c(-c2ccc(N)cc2)ncc(NS(C)(=O)=O)c1=O)C(=O)C(F)(F)F (stereo not drawn) | – | – | – | inhibition (Cricetinae gen. sp. [1]): inactive
9 | CC(C)C(NC(=O)Cn1c(-c2ccc(NC(=O)C(F)(F)F)cc2)ncc(NC(=O)OCc2ccccc2)c1=O)C(=O)C(F)(F)F (stereo not drawn) | 7.37 | – | – | inhibition (Cricetinae gen. sp. [1]): inactive
10 | CCNc1cnc(-c2cccs2)n(CC(=O)NC(C(=O)C(F)(F)F)C(C)C)c1=O (stereo not drawn) | 7.59 | 32 | 52 | –
11 | CNc1cnc(-c2ccc(F)cc2)n(CC(=O)NC(C(=O)C(F)(F)F)C(C)C)c1=O (stereo not drawn) | 7.34 | – | 89 | inhibition (Cricetinae gen. sp. [5]): inactive; inhibition in vivo at 2.5 mg/kg (Cricetinae gen. sp. [6]): 43%
12 | CC(C)C(NC(=O)Cn1c(-c2ccccc2)ccc(NC(=O)OCc2ccccc2)c1=O)C(=O)C(F)(F)F (stereo not drawn) | – | – | – | logP [8]: > 4; inhibition (Cricetinae gen. sp. [1]): inactive

Second part, led by results:

Row | pKi (Neutrophil elastase) | SMILES | inhibition in vivo at 2.5 mg/kg (Cricetinae gen. sp. [3]) [%] | inhibition in vivo at 20 mg/kg (Cricetinae gen. sp. [7]) [%] | other results
13 | 7.64 | CC(C)C(NC(=O)Cn1c(-c2ccc(F)cc2)ncc(NC(=O)OCc2ccncc2)c1=O)C(=O)C(F)(F)F (stereo not drawn) | – | – | inhibition (Cricetinae gen. sp. [1]): inactive
14 | 7.74 | CC(C)C(NC(=O)Cn1c(-c2ccc(Cl)cc2)ncc(NC(=O)OCc2ccccc2)c1=O)C(=O)C(F)(F)F (stereo not drawn) | – | – | Ratio [2]: 322; inhibition (Cricetinae gen. sp. [1]): inactive
15 | 7.80 | CSC(=O)Nc1cnc(-c2ccccc2)n(CC(=O)NC(C(=O)C(F)(F)F)C(C)C)c1=O (stereo not drawn) | 32 | – | inhibition in vivo at 20 mg/kg (Cricetinae gen. sp. [4]): 57%
16 | 9.68 | CC(C)C(NC(=O)Cn1c(-c2ccc(F)cc2)ncc(NS(=O)(=O)C2CCCCC2)c1=O)B1OC(C)(C)C(C)(C)O1 (stereo not drawn) | – | – | inhibition (Cricetinae gen. sp. [5]): inactive; inhibition in vivo at 2.5 mg/kg (Cricetinae gen. sp. [6]): 31%
17 | 7.64 | CSC(=O)Nc1cnc(-c2ccc(F)cc2)n(CC(=O)NC(C(=O)C(F)(F)F)C(C)C)c1=O (stereo not drawn) | 50 | – | –
18 | 9.02 | Cc1cncc(C)c1COC(=O)Nc1cnc(-c2ccc(F)cc2)n(CC(=O)NC(B2OC(C)(C)C(C)(C)O2)C(C)C)c1=O (stereo not drawn) | – | – | inhibition (Cricetinae gen. sp. [10]): inactive
19 | 8.80 | CC(C)C(NC(=O)Cn1c(-c2ccc(F)cc2)ncc(NS(=O)(=O)C2CCCCC2)c1=O)C(=O)C(F)(F)F (stereo not drawn) | – | – | inhibition (Cricetinae gen. sp. [10]): inactive
